For data set [1] the following is noted: background statement; cited from earlier work.
Data set [2] deals with T1, horseradish peroxidase type VI-A (Armoracia rusticana, UniProt P00433).
T1 construct: purchased Sigma 6782
T1 sequence (P00433 31-338 limits assumed): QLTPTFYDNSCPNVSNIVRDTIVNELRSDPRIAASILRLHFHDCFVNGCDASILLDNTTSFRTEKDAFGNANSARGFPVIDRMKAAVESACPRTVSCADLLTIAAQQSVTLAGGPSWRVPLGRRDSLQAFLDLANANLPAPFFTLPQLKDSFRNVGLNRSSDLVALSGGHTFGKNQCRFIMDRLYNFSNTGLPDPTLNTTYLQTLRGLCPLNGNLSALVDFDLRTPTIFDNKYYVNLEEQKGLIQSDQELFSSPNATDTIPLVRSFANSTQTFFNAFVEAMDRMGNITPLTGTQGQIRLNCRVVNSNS
Put plainly: Peroxidase-catalysed oxidation of substrates, initial velocity (absorbency 492 nm) vs substrate concentration, Michaelis/Menten. It counts as biochemical. The following applies: for Kkat: Vmax/[E], worked out from peroxidase of 50,000 g/mol; for Properties as substrate for peroxidase (in words): peroxidase/hydrogen peroxide system, compared with OPD or 3,4-DABA. An excerpt:
Absorbancy at 492 nm was used as a measure of the course of the reaction. The initial velocity was taken to be the absorbancy at 492 nm two minutes after the addition of the peroxidase to a mixture of the substrate and hydrogen peroxide in a buffer with a pH of 5.0. The wavelength of 492 nm was chosen because it is employed in the standard assay procedures for OPD.
By varying the concentration of the substrate and at the same time measuring the initial velocity of the reaction it is posible to apply the Michaelis/Menten equation to the system.
Under ideal conditions the values determined experimentally will approach the value of the expression: [formula]
where [S] is the concentration of the substrate, Vmax is the maximum initial […] which is reached in the particular assay. Km is defined as the concentration of the substrate at Vmax/2. A small Km value will therefore be characteristic for an enzyme system where a low concentration of the substrates produces saturation of the enzyme.
The expression implies that the initial velocity will increase with increasing concentration of the substrate, but the curve for the velocity will flatten out and approach Vmax for very high concentrations of the substrate. In actual fact the parameter Kkat be calculated as Vmax/[E] where [E] is the molar concentration of the enzyme in the reaction. Kkat is the same as min^−1 and reflects the activity of the enzyme in a saturated solution upon the substrate.
The following solutions were prepared for use in the enzyme assay:
A 50 mM phosphate/citrate buffer with a pH of 5.0 was made by mixing a 50 mm Na2HPO4 solution and a 50 mm solution of citric acid. The pH was measured while mixing was in progress.
15 μl of a 30% solution of hydrogen peroxide (PERHYDROL, Merck) was thinned down with 25 ml of the assay buffer.
The stabilizing buffer for peroxidase, i.e. a buffer which stabilizes the enzyme, was prepared according to the method of Olsen and Little (1983). A 0.1M Na-acetate buffer, which was 0.5M in terms of CaCl2 was adjusted to pH 5.6.
10 mg of horseradish peroxidase type VI-A (Sigma no. 6782) were dissolved in 10 ml of the stabilizing buffer. This was stored at −15° C.
The standard peroxidase solution was diluted to 1:1000 with the 10 ml assay-buffer solution in 10 μl standard solution.
0.5 mmol of each substrate in 5 ml DMF.
The standard solutions were diluted by 1:10 with the assay buffer. Before being used the substrate solutions were diluted by 1:10. 0.5 ml of the standard solution was thinned down with 4.5 ml of the assay buffer.
The concentration of the peroxidase was held constant at 50 ng/ml during the whole investigation. By using the volume of substrate and the volumes of 10 vol-% DMF solution as given in table 4 it was possible to employ a constant reaction volume and a constant concentration of DMF. For all measurements there was used 1550 μl buffer and 50 μl bench solution of peroxidase. The total volume is then as follows: 300 μI DMF and substrate solution, 1550 μl buffer, […] bench solution of peroxidase and 50 μl hydrogen peroxide solution. That is 2000 μl in total.
The results of the measurements of initial velocities are stated in units of absorbency and not in molar units. In order to be able to measure the “true” velocity of reaction it is necessary to isolate the oxidation product for each substrate and determine the molar extinction coefficient. The value of Kkat is worked out from 1 mole of peroxidase of 50,000 g/mol.

In data set [3] the test system is Salmonella tphimurium TA 98. Description: Ames test for mutagenicity, with and without S9-mix. The class given is cell-based. The following applies: 100 μl of 50, 100 and 200 mM solutions in DMSO, with and without rat liver S9-mix. The procedure: The Ames test (Maron and Ames (1983)) was used to determine the mutagenic properties of the compounds. Nutrient media were prepared in the manner described by Venitt and Parry (1984). To 3×2 ml melted agar at 45° C. were added 100 μl of 50, 100 and 200 mM of solutions of the compounds dissolved in DMSO. By means of a pipette 100 μl of a well-grown culture of Salmonella tphimurium TA 98 (BIO-TEST gl. skolevej 47, 6731 Tiaereborg) were added to the same test-tube. The bacteria contain a frameshift mutation on the histinol-dehydrogenase gene and require histidin in order to grow. Mutagenic aromatic amines can cause the bacteria to mutate to His+ and they can then grow on the nutrient medium. The number of colonies after incubation therefore give a quantitative measure of the ability of the added compound to cause mutation. In all trials spontaneous mutations take place in the absence of a mutagen. These provide a measure of “background” mutation.
All trials were therefore carried out both with and without the addition of “S9-mix” from the livers of rats, this contains the P450 system. 0.5 ml of […] was added to each test-tube. The criteria for mutation are that increasing concentrations of the compound under investigation give a marked increase in the number of His+ mutants.

SMILES strings stand for the structures. Entries after “also recorded” stand apart in the source; their conditions may differ.

For `CCn1c(=NN=c2sc3cc(S(=O)(=O)O)ccc3n2CC)sc2cc(S(=O)(=O)O)ccc21` [ABTS, 2,2-azino-di (3-ethyl-benzo thiazolin-6-sulphonic acid)], the “Mutagenicity (known)” value in data set [1] is given as “mutagent”.

Turning to `COC(=O)c1ccc(N)c(N)c1` [methyl ester, 3,4-diaminobenzoic acid methyl ester], the melting point (commonly the temperature of the solid-liquid transition) lay in the range of 108 to 109 °C. Further, in data set [2], the Kkat was 2.2 * 10^8 1*mol^−1*min^−1 and the “Properties as substrate for peroxidase (in words)” value (“Properties as substrate” for short) is “significantly improved properties than 3,4-DABA”.

With `CC(C)OC(=O)c1ccc(N)c(N)c1` [isopropyl ester, 3,4-diamino benzoic acid isopropyl ester], the melting point fell in the range of 73 to 74 °C. In data set [2], the Kkat is on record as 2.2 * 10^8 1*mol^−1*min^−1 and the “Properties as substrate” value is recorded as “significantly improved properties than 3,4-DABA”.

As to `Nc1ccc(C(=O)O)cc1` [PABA, p-amino benzoic acid], the “Toxicity (generally considered)” value in data set [1] is “non-toxic”.

For `Nc1ccccc1` [aniline], in data set [1], the “Toxicity (generally considered)” value is given as “very toxic”.

Compound `CCOC(=O)c1ccc(N)c(N)c1` [ethyl ester, 3,4-diamino benzoic acid ethyl ester] registered a melting point of 112 to 113 °C. In data set [2], the Kkat is given as 2.7 * 10^8 1*mol^−1*min^−1 and the “Properties as substrate” value is on record as “significantly improved properties than 3,4-DABA; also recorded: very high Vmax”.

With `Nc1ccccc1N` [OPD, o-phenylendiamine], in data set [2], the Kkat is 1.6 * 10^8 1*mol^−1*min^−1. Also, the “Mutagenic properties (His+ mutants with increasing concentration)” value in data set [3] is listed as “has mutagenic properties”. In data set [1], the “Carcinogenicity (known)” value is “carcinogenic” and the “Mutagenicity (known)” value is listed as “mutagenic; also recorded: not a direct mutagen”.

Consider `Nc1ccc(C(=O)O)cc1N` [3,4-DABA, 3,4-diamino benzoic acid], for which, in data set [2], the Kkat is listed as 2.0 * 10^8 1*mol^−1*min^−1 and the “Properties as substrate” value is recorded as “considerably poorer substrate for peroxidase than is OPD; also recorded: higher Km-value at the same Vmax when compared with OPD”.

Values taken from US20020004958A1, “Dyeing substrates” (Novozymes A/S, priority 1996, published 2002).
